Reference: patent US20250027966A1, “A MICROFLUIDIC DEVICE TO DISPENSE A METABOLIC INDICATOR” (Hewlett-Packard Development Company, L.P., priority 2021, published 2025)

Tested on: E. coli
Experiment: Resazurin fluorescence assay of E. coli mixed with ampicillin
Type: cell-based
Conditions: for fluorescence: 583 nm; for increase in fluorescence signal compared to resazurin alone: 4 hr incubation
From the text: In some examples, the metabolic indicator includes a fluorogenic compound. A non-limiting example of a fluorogenic compound that may be used as a metabolic indicator includes resazurin which is transformed to resorufin when mixed with living cells, such as with bacteria. […] Resorufin is fluorescent, which allows for monitoring the reaction. For example, resorufin is excited at around 540 nanometers (nm) and emits around 590 nm. Living cells, such as bacteria, may be mixed with resazurin for around one to four hours. For example, after incubation and to overcome the background signal, around 7×10^6 colony forming unit per milliliter (cfu/mL) of Escherichia coli may be present.
FIG. 2C illustrates the example apparatus 200 of FIG. 2A while the imaging device is capturing images of the substrate, in accordance with the present disclosure. As described with regards to FIG. 2B, the imaging device 215 may capture images at any point in time, and/or once a statiscially significant signal is detected. Also, as described with regards to FIG. 2A, resazurin reduction results in an increase in fluorescence. Accordingly, as bacterial concentration increases over time, more resazurin reduction results and the result is an increase in fluorescence. Antibiotic combinations that disrupt bacterial growth may therefore have less fluorescence than those combinations which have no effect. […] This conclusion may be obtained, because region 219-4, region 219-3, and region 219-2 each have a greater fluorescence level as compared to region 219-1, which is the result of more resazurin reduction by living cells (such as bacteria).
Background conversion of resazurin to resorufin (in absence of bacteria) can be calibrated out for increased sensitivity and reduction of assay time. Moreover, the minimum inhibitory concentration of the antibiotic (or antibiotic combination) can be measured, because the microfluidic device 211 is capable of dispensing very small volumes of reagents (e.g., antibiotics), as well as precise volumes of reagent combinations. The rate of fluorescence increase can be correlated to bacterial growth rate and thus the inhibition potential of a particular antibiotic can be measured, as illustrated in the graph included in FIG. 2C. This fluorescence readout may be obtained between 3 and 6 hours, and may thus be used for fast determination of combinations of antibiotics for antibiotic treatment.
As illustrated in the top portion of FIG. 6, a MIC test strip from Liofilchem® containing a gradient of ampicillin was applied on an agar plate coated with E. coli. The minimum inhibitory concentration of ampicillin was approximately 2 μg/mL. The E. coli was mixed with various concentrations of ampicillin (0 to 8 μg/mL) and resazurin, and the fluorescence was measured at various times. The concentrations of ampicillin used was 0 μg/mL, 0.25 μg/mL, 0.5 μg/mL, 1 μg/mL, 2 μg/mL, and 8 μg/mL. […] For the sample including E. coli and 8 μg/mL of ampicillin, the fluorescence increased from approximately 10,000 a.u. at 30 minutes, to approximately, 35,000 a.u. at 3 hours and 4 hours. For the sample including E. coli and 0 μg/mL of ampicillin, the fluorescence increased from approximately 10,000 a.u. at 30 minutes, to approximately, 50,000 a.u. at 3 hours and 10^5 a.u at 4 hours. For the sample including E. coli and 0.25 μg/mL of ampicillin, the fluorescence increased from approximately 10,000 a.u. at 30 minutes, to approximately 60,000 a.u. at 3 hours, and approximately 80,000 a.u. at 4 hours. For the sample including E. coli and 0.5 μg/mL of ampicillin, the fluorescence increased from approximately 10,000 a.u. at 30 minutes, to approximately 70,000 a.u. at 3 hours, and approximately 80,000 a.u. at 4 hours. For the sample including E. coli and 1 μg/mL of ampicillin, the fluorescence increased from approximately 10,000 a.u. at 30 minutes, to approximately 75,000 a.u. at 3 hours, and approximately 10^5 a.u. at 4 hours. […]

With `CC1(C)S[C@@H]2[C@H](NC(=O)[C@H](N)c3ccccc3)C(=O)N2[C@H]1C(=O)O` [ampicillin] the fluorescence (E. coli + 0.25 μg/mL ampicillin + resazurin, 30 minutes) was “approximately 10,000 a.u”, the fluorescence (E. coli + 0.25 μg/mL ampicillin + resazurin, 3 hours) was “approximately 60,000 a.u” and the fluorescence (E. coli + 0.25 μg/mL ampicillin + resazurin, 4 hours) was “approximately 80,000 a.u”. The fluorescence (E. coli + 0.5 μg/mL ampicillin + resazurin, 30 minutes) was “approximately 10,000 a.u”, the fluorescence (E. coli + 0.5 μg/mL ampicillin + resazurin, 3 hours) was “approximately 70,000 a.u” and the fluorescence (E. coli + 0.5 μg/mL ampicillin + resazurin, 4 hours) was “approximately 80,000 a.u”. The fluorescence (E. coli + 1 μg/mL ampicillin + resazurin, 30 minutes) was “approximately 10,000 a.u”, the fluorescence (E. coli + 1 μg/mL ampicillin + resazurin, 3 hours) was “approximately 75,000 a.u” and the fluorescence (E. coli + 2 μg/mL ampicillin + resazurin, 30 minutes) was “approximately 10,000 a.u”. The fluorescence (E. coli + 2 μg/mL ampicillin + resazurin, 3 hours) was “approximately 75,000 a.u”, the fluorescence (E. coli + 8 μg/mL ampicillin + resazurin, 30 minutes) was “approximately 10,000 a.u” and the fluorescence (E. coli + 8 μg/mL ampicillin + resazurin, 3 hours) was ~35,000 a.u. For the same molecule, the fluorescence (E. coli + 8 μg/mL ampicillin + resazurin, 4 hours) was ~35,000 a.u, the “increase in fluorescence signal compared to resazurin alone” value ([ampicillin]<2 μg/mL) was 6 × and the “increase in fluorescence signal compared to resazurin alone” value (ampicillin 8 μg/mL) was 2 ×.
